Data from patent US8586591B2, “Aminopyrazine derivative and medicine” (Nippon Shinyaku Co., Ltd., priority 2009, dated 2013).
Where a name gives a salt, the structure may show the parent alone.

Columns and labels:
[1] = target: BaF3 cells into which JAK2 V617F gene was introduced (Homo sapiens, UniProt O60674, V617F, cells depend on it); test: Test 2: growth inhibitory action against variant JAK2 expressed cells (MTT method); assay type: cell-based; details: incubation for 3 days, triplicate, read-out: concentration of the test material which inhibited 50% of the cell growth (IC50)
Sequence of BaF3 cells into which JAK2 V617F gene was introduced (O60674 whole entry V617F): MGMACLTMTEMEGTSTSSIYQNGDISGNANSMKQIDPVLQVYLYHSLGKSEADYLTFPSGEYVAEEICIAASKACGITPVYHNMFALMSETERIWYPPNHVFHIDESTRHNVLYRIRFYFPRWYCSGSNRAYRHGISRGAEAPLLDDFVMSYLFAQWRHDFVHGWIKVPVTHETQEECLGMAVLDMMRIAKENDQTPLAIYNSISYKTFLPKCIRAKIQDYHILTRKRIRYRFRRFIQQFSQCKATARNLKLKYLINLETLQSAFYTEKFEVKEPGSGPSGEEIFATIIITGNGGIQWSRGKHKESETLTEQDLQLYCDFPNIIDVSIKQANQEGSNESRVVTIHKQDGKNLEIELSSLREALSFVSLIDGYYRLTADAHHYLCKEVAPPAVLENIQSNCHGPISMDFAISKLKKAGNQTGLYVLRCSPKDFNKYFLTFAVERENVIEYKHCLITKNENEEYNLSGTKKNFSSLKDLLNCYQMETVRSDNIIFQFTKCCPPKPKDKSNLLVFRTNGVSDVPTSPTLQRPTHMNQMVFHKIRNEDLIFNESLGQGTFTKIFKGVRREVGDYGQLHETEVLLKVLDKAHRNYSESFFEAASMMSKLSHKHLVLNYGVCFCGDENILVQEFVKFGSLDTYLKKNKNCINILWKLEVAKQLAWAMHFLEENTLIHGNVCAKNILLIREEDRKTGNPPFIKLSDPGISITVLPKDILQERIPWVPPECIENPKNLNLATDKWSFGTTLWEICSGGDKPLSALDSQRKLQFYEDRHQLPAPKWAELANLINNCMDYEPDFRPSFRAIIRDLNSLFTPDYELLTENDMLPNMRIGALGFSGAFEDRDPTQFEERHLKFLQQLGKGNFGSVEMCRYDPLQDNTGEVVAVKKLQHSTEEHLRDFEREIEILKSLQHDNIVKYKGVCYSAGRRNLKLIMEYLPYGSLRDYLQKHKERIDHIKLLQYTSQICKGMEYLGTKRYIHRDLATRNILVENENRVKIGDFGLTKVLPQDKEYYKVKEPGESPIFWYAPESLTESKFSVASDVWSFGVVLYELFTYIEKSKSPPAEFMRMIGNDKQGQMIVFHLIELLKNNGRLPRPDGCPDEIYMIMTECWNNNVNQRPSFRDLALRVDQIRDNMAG
Protocol: Test 2: Growth inhibitory action against variant JAK2 expressed cells
BaF3 cells into which JAK2 V617F gene was introduced ([…]) were inoculated on a 96-well plate in an amount of 1×10^3 cells/well and allowed to stand in a CO2 incubator. Next day, the test material was added to the cells. The test material was serially diluted with DMSO to give 10 mM, 6 mM, 3 mM, 1 mM, 600 μM, 300 μM, 100 μM, 60 μM, 30 μM, or 10 μM solution. This was diluted 100 times with distilled water to give 100 μM, 60 μM, 30 μM, 10 μM, 6 μM, 3 μM, 1 μM, 600 nM, 300 nM, or 100 nM solution. This solution of test material was added to the well in an amount of 10 μl/well. As a negative control, 1% DMSO solution was added to the well in an amount of 10 μl/well. In the above operation, the final concentration of the test material became 10 μM, 6 μM, 3 μM, 1 μM, 600 nM, 300 nM, 100 nM, 60 nM, 30 nM, 10 nM, or 0 nM (0.1% DMSO solution). The addition of the test material solution to each well was made in triplicate.
After continuous incubation for 3 days, the viable count was determined by an MTT method. The MTT method was carried out as follows. First, 10 μl each of solution containing 5 mg/ml of MTT (3-(4,5-dimethylthiazol-2-yl)-2,5-diphenyltetrazolium bromide) was added to each well. The plate was allowed to stand in a CO2 incubator for 4 hours, and then 100 μl of 0.04N HCl/2-propanol solution was added to each well to stop the reaction. The generated MTT-formazan was dissolved well with a multi-channel pipette, and the absorbance at 595 nm was measured with reference to that at 655 nm (Thermo Co.; Multiskan FC). Non-linear regression analysis was made by means of a SAS system (SAS Institute Inc.), and the concentration (IC50) of the test material which inhibited 50% of the cell growth was estimated.

[2] = target: T1, JAK2 tyrosine kinase (Homo sapiens, UniProt O60674); test: Test 1: inhibitory activity to JAK2 tyrosine kinase (ELISA); assay type: biochemical; details: 25 μM ATP in substrate solution, 30° C. for 1 hour, n=2
T1 construct: purchased Carnabioscience Co
T1 sequence (O60674 whole entry): as the sequence (O60674 whole entry V617F) above, with F617V counted along it
Procedure, shortened: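 This is an ELISA read at A450 (HRP anti-phosphotyrosine antibody, TMB) of biotin-peptide phosphorylation captured on streptavidin. Enzyme solution was 0.75 nM JAK2, and the substrate solution was 625 nM peptide with 25 μM ATP in Tris pH 7.5 buffer. The reaction ran 1 h at 30 °C with compounds in duplicate, and IC50 was fitted non-linearly.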

[3] = target: T2, JAK3 tyrosine kinase (Homo sapiens, UniProt P52333); test: Test 1: inhibitory activity to JAK3 tyrosine kinase (ELISA); assay type: biochemical; details: 25 μM ATP in substrate solution, 30° C. for 1 hour, n=2
T2 construct: purchased Carnabioscience Co
T2 sequence (P52333 1-1124): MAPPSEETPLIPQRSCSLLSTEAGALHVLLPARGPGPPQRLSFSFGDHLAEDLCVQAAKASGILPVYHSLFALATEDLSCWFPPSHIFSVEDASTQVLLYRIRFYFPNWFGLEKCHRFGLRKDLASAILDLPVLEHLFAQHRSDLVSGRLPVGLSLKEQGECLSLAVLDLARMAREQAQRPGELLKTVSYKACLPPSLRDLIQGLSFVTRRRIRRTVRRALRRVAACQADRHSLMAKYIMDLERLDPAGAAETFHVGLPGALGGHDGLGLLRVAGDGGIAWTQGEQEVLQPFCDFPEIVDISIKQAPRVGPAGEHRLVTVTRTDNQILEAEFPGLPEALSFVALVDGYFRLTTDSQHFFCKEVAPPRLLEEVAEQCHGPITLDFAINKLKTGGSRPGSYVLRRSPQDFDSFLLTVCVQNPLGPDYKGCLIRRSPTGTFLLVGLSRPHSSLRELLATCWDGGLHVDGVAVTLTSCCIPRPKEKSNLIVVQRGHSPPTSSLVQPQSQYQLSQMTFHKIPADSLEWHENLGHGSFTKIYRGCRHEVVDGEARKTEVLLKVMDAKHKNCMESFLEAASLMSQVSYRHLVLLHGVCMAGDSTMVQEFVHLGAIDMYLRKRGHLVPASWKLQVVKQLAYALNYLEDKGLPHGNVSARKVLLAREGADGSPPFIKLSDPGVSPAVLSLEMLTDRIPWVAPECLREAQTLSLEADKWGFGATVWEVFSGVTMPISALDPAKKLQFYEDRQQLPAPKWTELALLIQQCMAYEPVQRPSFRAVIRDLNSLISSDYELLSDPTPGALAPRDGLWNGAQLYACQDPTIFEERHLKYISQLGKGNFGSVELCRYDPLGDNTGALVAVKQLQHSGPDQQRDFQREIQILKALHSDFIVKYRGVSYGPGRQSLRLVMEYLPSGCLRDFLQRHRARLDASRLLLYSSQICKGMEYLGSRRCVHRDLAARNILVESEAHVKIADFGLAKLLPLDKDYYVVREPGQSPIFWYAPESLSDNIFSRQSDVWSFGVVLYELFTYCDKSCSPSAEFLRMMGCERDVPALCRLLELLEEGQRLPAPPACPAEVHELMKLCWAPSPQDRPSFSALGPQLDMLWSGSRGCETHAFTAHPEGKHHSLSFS
Procedure, shortened: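 ELISA of JAK3 kinase activity with absorbance read at 450 nm. Compounds were tested from DMSO dilution series at 100-fold the measurement concentrations (1000–0.01 μM), diluted up to 20 times in assay buffer, against a DMSO negative control. IC50 was estimated by non-linear regression of absorbance.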

SMILES | GI50 [1] [nM] | IC50 [2] [nM] | IC50 [3] [nM]
C[C@H](Nc1nc(Nc2cnccn2)cc(N2CCN(S(C)(=O)=O)CC2)n1)c1ccc(F)cc1 [Example 65, (S)—N^2-[1-(4-Fluorophenyl)ethyl]-6-[4-(methylsulfonyl)piperazin-1-yl]-N^4-(pyrazin-2-yl)pyrimidine-2,4-diamine hydrochloride] | 93 | 0.27 | 8.9
C[C@H](Nc1nc(Nc2cnccn2)cc(N2CCOCC2)n1)c1ccc(F)cc1 [Example 20, (S)—N^2-[1-(4-Fluorophenyl)ethyl]-6-morpholino-N^4-(pyrazin-2-yl)pyrimidine-2,4-diamine] | 55 | 0.69 | 21
CC(=O)N[C@H]1CCN(c2cc(Nc3cnccn3)nc(N[C@@H](C)c3ccc(F)cc3)n2)C1 [Example 2, N-{(S)-1-[2-{[(S)-1-(4-Fluorophenyl)ethyl]amino-}-6-(pyrazin-2-ylamino)pyrimidin-4-yl]pyrrolidin-3-yl}acetamide hydrochloride] | 70 | 0.49 | 43
CC(C)CNC(=O)c1cc(Nc2cnccn2)nc(N[C@@H](C)c2ccc(F)cc2)c1 [Example 170, (S)-2-[1-(4-Fluorophenyl)ethylamino]-N-isobutyl-6-(pyrazin-2-ylamino) isonicotinamide] | 77 | 1.2 | 180
C[C@H](Nc1nc(Nc2cnccn2)cc(N2CCC(C(N)=O)CC2)n1)c1ccc(F)cc1 [Example 56, (S)-1-{2-[1-(4-Fluorophenyl)ethylamino]-6-(pyrazin-2-ylamino)pyrimidin-4-yl}piperidine-4-carboxamide hydrochloride] | 81 | 0.79 | 24
C[C@H](Nc1nc(Nc2cnccn2)cc(N2CC(N(C)C)C2)n1)c1ccc(F)cc1 [Example 220, (S)-6-[3-(Dimethylamino)azetidin-1-yl]-N^2-[1-(4-fluorophenyl)ethyl]-N^4-(pyrazin-2-yl)pyrimidine-2,4-diamine] | 64 | 0.98 | 24
C[C@H](Nc1cc(C(=O)NCC2CC2)cc(Nc2cnccn2)n1)c1ccc(F)cc1 [Example 167, (S)—N-Cyclopropylmethyl-2-[1-(4-fluorophenyl)ethylamino]-6-(pyrazin-2-ylamino) isonicotinamide] | 63 | 1.6 | 350
C[C@H](Nc1nc(Nc2cnccn2)cc(N2CCNC(=O)C2)n1)c1ccc(F)cc1 [Example 1, (S)-4-{2-[1-(4-Fluorophenyl)ethylamino]-6-(pyrazin-2-ylamino)pyrimidin-4-yl}piperazin-2-one] | 83 | 0.94 | 45
C[C@H](Nc1nc(Nc2cnccn2)cc(N2CCCC(C(N)=O)C2)n1)c1ccc(F)cc1 (stereo partly drawn) [Example 63, 1-{2-[(S)-1-(4-Fluorophenyl)ethylamino]-6-(pyrazin-2-ylamino)pyrimidin-4-yl}piperidin-3-carboxamide hydrochloride] |  | 1 | 36
CC(Nc1cc(Nc2cnccn2)nc(N[C@@H](C)c2ccc(F)cc2)n1)c1cccnc1 (stereo partly drawn) [Example 104, (S)—N^2-[1-(4-Fluorophenyl)ethyl]-N^4-(pyrazin-2-yl)-N^6-[1-(pyridin-3-yl)ethyl]pyrimidine-2,4,6-triamine] |  | 1 | 39
C[C@H](Nc1cc(-c2cc[nH]c2)cc(Nc2cnccn2)n1)c1ccc(F)cc1 [Example 116, (S)—N^2-[1-(4-Fluorophenyl)ethyl]-N^6-(pyrazin-2-yl)-4-(1H-pyrrol-3-yl)pyridine-2,6-diamine dihydrochloride] |  | 5.3 | 340
C[C@H](Nc1nc(Nc2cnccn2)cc(N2CCC3(CC2)OCCO3)n1)c1ccc(F)cc1 [Example 111, N^2-[(S)-1-(4-Fluorophenyl)ethyl]-N^4-(pyrazin-2-yl)-6-(1,4-dioxa-8-azaspiro[4.5]decan-8-yl)pyrimidine-2,4-diamine] |  | 1.6 | 110
C[C@H](Nc1nc(Nc2cnccn2)ccc1C(=O)NCC1CC1)c1ccc(F)cc1 [Example 189, (S)—N-(Cyclopropylmethyl)-2-[1-(4-fluorophenyl)ethylamino]-6-(pyrazin-2-ylamino)nicotinamide] |  | 12 | 1500
CCNC(=O)C1CN(c2cc(Nc3cnccn3)nc(N[C@@H](C)c3ccc(F)cc3)n2)C1 [Example 180, (S)—N-Ethyl-1-{2-[1-(4-fluorophenyl)ethylamino]-6-(pyrazin-2-ylamino)pyrimidin-4-yl}azetidine-3-carboxamide] |  | 2.5 | 52
CNC(=O)c1ccc(Nc2cnccn2)nc1N[C@@H](C)c1ccc(F)cc1 [Example 185, (S)-2-[1-(4-Fluorophenyl)ethylamino]-N-methyl-6-(pyrazin-2-ylamino)nicotinamide] |  | 4.2 | 380
C[C@H](Nc1cc(N2CC(O)(C3CC3)C2)cc(Nc2cnccn2)n1)c1ccc(F)cc1 [Example 203, (S)-3-Cyclopropyl-1-{2-[1-(4-fluorophenyl)ethylamino]-6-(pyrazin-2-ylamino)pyridin-4-yl}azetidin-3-ol hydrochloride] |  | 4.5 | 120
C[C@H](Nc1nc(Nc2cnccn2)cc(N2CC(CNC(=O)OC(C)(C)C)C2)n1)c1ccc(F)cc1 [Example 229, t-Butyl (S)-(1-{2-[1-(4-fluorophenyl)ethylamino]-6-(pyrazin-2-ylamino)pyrimidin-4-yl}azetidin-3-yl)methyl carbamate] |  | 3.9 | 180
C[C@H](Nc1nc(Nc2cnccn2)cc(-c2ccccn2)n1)c1ccc(F)cc1 [Example 14, (S)—N^2-[1-(4-Fluorophenyl)ethyl]-N^4-(pyrazin-2-yl)-6-(pyridin-2-yl)pyrimidine-2,4-diamine] |  | 1.9 | 120
C[C@H](Nc1nc(Nc2cnccn2)cc(-c2ccc(S(C)(=O)=O)cc2)n1)c1ccc(F)cc1 [Example 10, (S)—N^2-[1-(4-Fluorophenyl)ethyl]-6-[4-(methylsulfonyl)phenyl]-N^4-(pyrazin-2-yl)pyrimidine-2,4-diamine hydrochloride] |  | 0.89 | 95
